Target: T1, ERbeta Receptor (Homo sapiens, UniProt Q92731)
T1 construct: purchased Pan Vera
Assay: Competition ER binding assay (3H-Estradiol), ER beta
Details: ratio of Ki ER alpha to Ki ER beta; Ki from IC50 by Cheng-Prusoff equation
Protocol: The competition ER binding assay was run in a buffer containing 50 mM N-[2-hydroxyethyl]piperazine-N′-[2-ethanesulfonic acid (Hepes) pH 7.5, 1.5 mM EDTA, 150 mM NaCl, 10% glycerol, 1 mg/mL ovalbumin, 5 mM DTT, 0.025 μCi per well of ^3H-Estradiol (NEN #NET517 at 118 Ci/mmol, 1 mCi/mL), and 10 ng/well ERAlpha or ERbeta Receptor (Pan Vera). Competing compounds were added at 10 different concentrations. Non-specific binding was determined in the presence of 1 μM of E2 (17-β Estradiol, Sigma, St. Louis, Mo.). The binding reaction (140 μL) was incubated for 4 hours at room temperature, then 70 μL of cold dextran coated charcoal (DCC) buffer was added to each reaction (DCC buffer was prepared by adding 0.75 g of charcoal [Sigma] and 0.25 g of dextran [Pharmacia] per 50 mL of assay buffer). The incubation plates were mixed for 8 minutes on an orbital shaker at 4° C. and then centrifuged at 3,000 rpm for 10 minutes at 4° C. An aliquot of 120 μl of the mix was transferred to another 96-well, white flat bottom plate (Costar) and 175 μl of Wallac Optiphase Hisafe 3 scintillation fluid was added to each well. The plates were sealed and then shaken vigorously on an orbital shaker. After an incubation of 2.5 hrs, the radioactivity was counted in a Wallac Microbeta counter. […] The Kd for ^3H-Estradiol was determined by saturation binding to ERα and ERβ receptors. The IC50 values for compounds were converted to Ki values using the Cheng-Prusoff equation and the Kd values were determined by saturation binding assay.

T1 sequence (Q92731 whole entry): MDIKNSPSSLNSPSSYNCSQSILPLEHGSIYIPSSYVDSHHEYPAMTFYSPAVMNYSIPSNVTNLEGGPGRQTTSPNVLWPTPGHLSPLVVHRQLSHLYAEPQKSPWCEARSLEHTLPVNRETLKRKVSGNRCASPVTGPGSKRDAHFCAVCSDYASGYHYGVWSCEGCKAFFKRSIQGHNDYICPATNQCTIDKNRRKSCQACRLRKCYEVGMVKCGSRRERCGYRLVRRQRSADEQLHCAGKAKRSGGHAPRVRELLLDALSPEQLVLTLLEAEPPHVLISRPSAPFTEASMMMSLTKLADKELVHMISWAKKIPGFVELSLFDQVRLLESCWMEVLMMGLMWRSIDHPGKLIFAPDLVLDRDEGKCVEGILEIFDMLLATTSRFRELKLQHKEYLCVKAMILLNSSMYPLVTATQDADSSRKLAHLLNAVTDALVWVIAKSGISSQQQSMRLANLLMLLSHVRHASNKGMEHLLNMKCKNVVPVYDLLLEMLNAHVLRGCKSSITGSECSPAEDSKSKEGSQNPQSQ

SMILES | Ki (nM) ER alpha/Ki (nM) ER beta
Cc1cc([C@H]2Oc3ccc(O)cc3[C@H]3CCC[C@H]32)ccc1O (racemic) [Example 13, (^+)-2-(4-hydroxy-3-methylphenyl)-6-hydroxy-cyclopentyl[c]3,4-dihydro-2H-1-benzopyran] | 4.4
Cc1cc(O)cc2c1O[C@H](c1ccc(O)cc1)[C@@H]1CCC[C@H]21 (racemic) [Example 7, (^+)-2-(4-hydroxyphenyl)-6-hydroxy-8-meth 1-cyclopentyl[c]3,4-dihydro-2H-1-benzopyran] | 5.1
Oc1ccc([C@H]2Oc3ccc(C(F)(F)F)cc3[C@H]3CCC[C@H]32)cc1 (racemic) [Example 2, (^+)-2-(4-hydroxyphenyl)-6-trifluoromethyl-cyclopentyl[c]3,4-dihydro-2H-1-benzopyran] | 1.4
COc1cc(O)cc2c1O[C@H](c1ccc(O)cc1)[C@@H]1CCC[C@H]21 (racemic) [Example 9, (^+)-2-(4-hydroxyphenyl)-6-hydroxy-8-methoxy-cyclopentyl[c]3,4-dihydro-2H-1-benzopyran] | 13
Oc1ccc([C@H]2Oc3ccc(O)cc3[C@H]3CCC[C@H]32)cc1 (racemic) [Example 1, (^+)-2-(4-hydroxyphenyl)-6-hydroxy-cyclopentyl[c]3,4-dihydro-2H-1-benzopyran] | 8.0
Oc1ccc([C@H]2Oc3ccc(F)cc3[C@H]3CCC[C@H]32)cc1 (racemic) [Example 4, (^+)-2-(4-hydroxyphenyl)-6-fluoro-cyclopentyl[c]3,4-dihydro-2H-1-benzopyran] | 4.7
CC1(C)CC[C@H]2[C@@H](c3ccc(O)cc3)Oc3ccc(O)cc3[C@H]21 (racemic) [Example 10, (^+)-2-(4-hydroxyphenyl)-6-hydroxy-11,11-dimethyl-cyclopentyl[c]3,4-dihydro-2H-1-benzopyran] | 2.5
Cc1ccc2c(c1)[C@H]1CCC[C@H]1[C@@H](c1ccc(O)cc1)O2 (racemic) [Example 3, (^+)-2-(4-hydroxyphenyl)-6-methyl-cyclopentyl[c]3,4-dihydro-2H-1-benzopyran] | 1.2
Oc1ccc([C@@H]2Oc3ccc(O)cc3[C@H]3CCC[C@H]32)cc1 (racemic) [Example 16, (^+)-2-(4-hydroxyphenyl)-6-hydroxy-cyclopentyl[c]3,4-dihydro-2H-1-benzopyran] | 1.4
COc1ccc2c(c1)[C@H]1CCC[C@H]1[C@@H](c1ccc(O)cc1)O2 (racemic) [Example 12, (^+)-2-(4-hydroxyphenyl)-6-methoxy-cyclopentyl[c]3,4-dihydro-2H-1-benzopyran] | 2.3
CCC1(CC)CC[C@H]2[C@@H](c3ccc(O)cc3)Oc3ccc(O)cc3[C@H]21 (racemic) [Example 11, (^+)-2-(4-hydroxyphenyl)-6-hydroxy-11,11-diethyl-cyclopentyl[c]3,4-dihydro-2H-1-benzopyran] | 1.6

Continued, values first:

Ki (nM) ER alpha/Ki (nM) ER beta | SMILES
2.0 | Cc1cc2c(cc1O)[C@H]1CCC[C@H]1[C@@H](c1ccc(O)cc1)O2 (racemic) [Example 19, (^+)-2-(4-hydroxyphenyl)-6-hydroxy-7-methyl-cyclopentyl[c]3,4-dihydro-2H-1-benzopyran]
1.4 | CC(C)[C@]1(c2ccc(O)cc2)Oc2ccc(O)cc2[C@@H]2CCC[C@@H]21 [Example 30, (+)-2-(1-methylethyl)-2-(4-hydroxyphenyl)-6-hydroxy-cyclopentyl[c]3,4-dihydro-2H-1-benzopyran]
1.3 | CC[C@]1(c2ccc(O)cc2)Oc2ccc(O)cc2[C@@H]2CCC[C@@H]21 [Example 29, (^+)-2-ethyl-2-(4-hydroxyphenyl)-6-hydroxy-cyclopentyl[c]3,4-dihydro-2H-1-benzopyran]
2.6 | Cc1cc([C@@H]2Oc3ccc(O)cc3[C@H]3CCC[C@H]32)ccc1O (racemic) [Example 14, (^+)-2-(4-hydroxy-3-methylphenyl)-6-hydroxy-cyclopentyl[c]3,4-dihydro-2H-1-benzopyran]
11 | Cc1cc(O)ccc1[C@H]1Oc2ccc(O)cc2[C@H]2CCC[C@H]21 (racemic) [Example 15, (^+)-2-(2-methyl-4-hydroxyphenyl)-6-hydroxy-cyclopentyl[c]3,4-dihydro-2H-1-benzopyran]
4.6 | C[C@]1(c2ccc(O)cc2)Oc2ccc(O)cc2[C@@H]2CCC[C@@H]21 [Example 28, (^+)-2-methyl-2-(4-hydroxyphenyl)-6-hydroxy-cyclopentyl[c]3,4-dihydro-2H-1-benzopyran]
0.6 | Cc1cc2c(cc1O)[C@H]1CCC[C@H]1[C@H](c1ccc(O)cc1)O2 (racemic) [Example 20, (^+)-2-(4-hydroxyphenyl)-6-hydroxy-7-methyl-cyclopentyl[c]3,4-dihydro-2H-1-benzopyran]
